Reference: US4226883A, “Carbamate derivatives and method for manufacture thereof” (priority 1974, dated 1980)
≈ marks a conversion by molar mass, not a printed value. Like-named read-outs stand apart in the source and are kept apart here.

Key:
[1] = tested on: Culex pipiens pallens immunized against organophosphoric preparations, last larval state; assay: Test Example 9 (W.H.O. method): mosquito larvae test; format: in vivo; details: Culex pipiens, 24 h, read-out: Effect of compound used singly, LD50 (Table 16)
Method: (1) An ethyl alcohol solution of each test compound was diluted with water to varying concentrations in the range of from 0.01 to 1.0 ppm.
(2) A 200-ml portion of each solution of a different concentration was placed in a 300-ml beaker. Then 30 test insects were plunged into the solution and then removed.
(3) The insects removed from the solution were kept in a greenhouse at a constant temperature of 25±1° C. for 24 hours. At the end of 24 hours of standing, a count was taken of the number of insects that had died by that time.
The test described above was repeated twice or thrice.

[2] = tested on: green rice leafhoppers of the strain RN; assay: Test Example 3: dust spray test (20 mesh metal gauze cylinder); format: in vivo, Nephotettix cincticeps; details: for mortality at 100 mg/cylinder / mortality at 250 mg/cylinder: 24 hr; for Effect of individual compound (RN), death ratio (%) (Table 9): dust, compound alone, RN strain
Method: The insecticides in the form of dust were tested for insecticidal activity.
(§1) The test for insecticidal activity was performed by the following procedure. […] The dust of a test compound (pulverized by means of a shaking pulverizer made by Taira Kosakusho, Ltd.) was applied onto the tube contents at a prescribed rate by spraying from outside the metal gauze by means of a bell-jar duster. The dust of the test compound was prepared uniformly mixing 2 parts of the dust of the individual compound or 1 part each of the dusts of the mixture components (total 2 parts) and 98 parts of a carrier obtained by mixing talc and clay in equal volumes.

[3] = tested on: resistant green rice leafhoppers (R); details: 1440 min
Method: (1) A 20-mg portion of a given test compound was weighed out and dissolved in 10 ml of acetone. The resultant solution was diluted at proper times with acetone.
(2) With a micro-syringe, the acetone solution of the test compound was topically applied to the thoracic region of female green rice leafhoppers at a fixed dose of 0.2 μl per head.
(3) The female green rice leafhoppers thus treated were placed in a plastic cup prepared in advance (measuring 7 cm in diameter and 3.5 cm in depth and containing rice seeds) and kept at a constant temperature of 26±1° C. After 24 hours' standing, the dead insects were counted.
In the case of a mixed insecticide, the LD50 was shown as a total dosage.

[4] = in vivo; details: mouse, po
Method: Different amounts of the suspension were injected into the stomaches of test mice with a metal tube. For the test, male mice of the species ddY were used.

[5] = tested on: green rice leafhoppers of the strain RN; assay: Test Example 4: dust test with 35 mesh metal gauze; format: in vivo, Nephotettix cincticeps
Method: as §1

[6] = tested on: cholinesterase (ChE), resistant strain; format: biochemical, green rice leafhopper, Nephotettix cincticeps; details: for Inhibition of Cholinesterase R/S (resistant ratio): ratio of the resistant strain to the susceptible strain (I50), 30 min; for IC50: resistant strain, 50% inhibition concentration, 30° C. 30 min with inhibitor, read-out: Inhibition of Cholinesterase I50 (M) R
Method: After centrifuged (30,000 g, 10 min.), the supernatant was used as the source of ChE.
(§2) (2) Inhibition: 1.0 ml of enzyme solution was incubated with 0.1 ml of inhibitor which diluted with acetone at 30° C. for 30 min. ((2) solution).
(§3) (3) Determination of ChE activity: 1.0 ml of acetylthiochline (3.5/2×10^-2 M), 1.0 ml of DTNB (5,5'-dithiobis-2-nitrobenzoic acid, 2.5×10^-4 M) and 4.0 ml of phosphate buffer (1/15 M, pH 7.4) were added to the (2) solution and incubated at 30° C. for 10 min.

[7] = target: cholinesterase (ChE), susceptible strain; assay: Inhibition of cholinesterase (acetylthiocholine method), susceptible strain enzyme; format: biochemical, green rice leafhopper, Nephotettix cincticeps; details: 50% inhibition concentration, 30° C. 30 min with inhibitor, read-out: Inhibition of Cholinesterase I50 (M) S
Method: The activity of ChE was performed by the acethyethiocholine method [Ellman (1961), Biochemical Pharmacology 7: 88-95].
[…]. After centrifuged (30,000 g, 10 min.), the supernatant was used as the source of ChE.
as §2
as §3, with “min. After incubation, […] of eserine (2×10^-3 M) was added in order to stop the enzyme reaction and the optical density of the yellow solution was measured at 412 mμ on the spectrophotometer.” for “min.”

[8] = 2% dust, 100 mg, read-out: Mortality (%) after 24 hr., 100 mg Spray (Table 7)
[9] = 2% dust, 250 mg, read-out: Mortality (%) after 24 hr., 250 mg Spray (Table 7)
[10] = ratio of the resistant strain to the susceptible strain (LD50)

CCCNC(=O)Oc1ccc(C)c(C)c1 [Compound 37, 3,4-dimethylphenyl-N-n-propylcarbamate]
LC50 [1]: > 1 µg/mL
mortality at 100 mg/cylinder [2, 8]: 60%
mortality at 250 mg/cylinder [2, 9]: 90%
Insecticidal Activity R/S (resistant ratio) [3, 10]: 0.8

CCCC(C)c1cccc(OC(=O)NC)c1 (stereo not shown) [Compound 19, 3-sec-amylphenyl-N-methylcarbamate, reference compound]
Insecticidal Activity R/S (resistant ratio) ([3]; green rice leafhopper, in vivo, topical_or_ocular): 9.3
LD50 at 168 h [4]: 54 mg/kg

CCCNC(=O)Oc1cc(C)cc(C)c1 [Compound 42, 3,5-dimethylphenyl-N-n-propylcarbamate]
LC50 [1]: > 1 µg/mL
mortality at 100 mg/cylinder [2, 8]: 70%
mortality at 250 mg/cylinder [2, 9]: 95%
mortality at 100 mg/cylinder ([2]; Table 8, dust 100 mg, read-out: Mortality (%) after 24 hr., Spray Volume 100 mg): 70%
mortality at 250 mg/cylinder ([2]; Table 8, dust 250 mg, read-out: Mortality (%) after 24 hr., Spray Volume 250 mg): 95%
Insecticidal Activity R/S (resistant ratio) [3, 10]: 0.7

CCOC(=O)CC(SP(=S)(OC)OC)C(=O)OCC (stereo not drawn) [Malathion, S-[1,2-bis(ethoxycarbonyl)ethyl]dimethyl phosphorothiolothionate, reference compound]
LC50 [1]: 0.31 µg/mL (≈ 0.938 µM)

CCC(C)c1cccc(OC(=O)NC)c1 (stereo not shown) [Compound 15, 3-sec-butylphenyl-N-methylcarbamate, reference compound]
Insecticidal Activity R/S (resistant ratio) [3, 10]: 19.0
LD50 at 168 h [4]: 87 mg/kg

CCCNC(=O)Oc1ccccc1C(C)CC (stereo not shown) [Compound 8, 2-sec-butylphenyl-N-n-propylcarbamate]
LC50 [1]: > 1 µg/mL
mortality at 250 mg/cylinder [2, 9]: 80%
Insecticidal Activity R/S (resistant ratio) [3, 10]: 1.2

CCCNC(=O)Oc1ccccc1OC(C)C [Compound 83, 2-isopropoxyphenyl-N-n-propylcarbamate]
LC50 [1]: > 1 µg/mL
death ratio (%), mixture with Compound No. 1 ([2]; Table 9, dust mixed with 1, RN): 80.0%
death ratio (%), mixture with Compound No. 6* ([2]; Table 9, dust mixed with 6*, RN): 95.0%
death ratio (%), mixture with Compound No. 24* ([2]; Table 9, dust mixed with 24*, RN): 82.5%
death ratio (%), mixture with Compound No. 35* ([2]; Table 9, dust mixed with 35*, RN): 100%
death ratio (%), mixture with Compound No. 40* ([2]; Table 9, dust mixed with 40*, RN): 82.5%
death ratio (%), mixture with Compound No. 49* ([2]; Table 9, dust mixed with 49*, RN): 50.0%
death ratio (%), mixture with Compound No. 81* ([2]; Table 9, dust mixed with 81*, RN): 100%
death ratio (%), mixture with Compound No. 118* ([2]; Table 9, dust mixed with 118*, RN): 95.0%
death ratio (%), mixture with Carbofuran ([2]; Table 9, dust mixed with Carbofuran, RN): 100%
death ratio (%), mixture with Methomyl ([2]; Table 9, dust mixed with Methomyl, RN): 100%
Effect of individual compound (RN), death ratio (%) (Table 9) [2]: 20.0%

CNC(=O)Oc1cccc2ccccc12 [Compound 49, 1-naphthyl-N-methylcarbamate]
Effect of individual compound (RN), death ratio (%) (Table 9) [2]: 0%
mortality at 100 mg ([5]; 1 h, read-out: Death ratio (%) 1 hr., Dusting amount 100 mg): 0%
mortality at 250 mg ([5]; 1 h, read-out: Death ratio (%) 1 hr., Dusting amount 250 mg): 0%
mortality at 500 mg ([5]; 1 h, read-out: Death ratio (%) 1 hr., Dusting amount 500 mg): 0%
mortality at 100 mg ([5]; 2 h, read-out: Death ratio (%) 2 hrs., Dusting amount 100 mg): 0%
mortality at 250 mg ([5]; 2 h, read-out: Death ratio (%) 2 hrs., Dusting amount 250 mg): 0%
mortality at 500 mg ([5]; 2 h, read-out: Death ratio (%) 2 hrs., Dusting amount 500 mg): 0%
mortality at 100 mg ([5]; 4 h, read-out: Death ratio (%) 4 hrs., Dusting amount 100 mg): 0%
mortality at 250 mg ([5]; 4 h, read-out: Death ratio (%) 4 hrs., Dusting amount 250 mg): 0%
mortality at 500 mg ([5]; 4 h, read-out: Death ratio (%) 4 hrs., Dusting amount 500 mg): 0%
mortality at 100 mg ([5]; 16 h, read-out: Death ratio (%) 16 hrs., Dusting amount 100 mg): 0%
mortality at 250 mg ([5]; 16 h, read-out: Death ratio (%) 16 hrs., Dusting amount 250 mg): 0%
mortality at 500 mg ([5]; 16 h, read-out: Death ratio (%) 16 hrs., Dusting amount 500 mg): 0%
mortality at 100 mg ([5]; 24 h, read-out: Death ratio (%) 24 hrs., Dusting amount 100 mg): 0%
mortality at 250 mg ([5]; 24 h, read-out: Death ratio (%) 24 hrs., Dusting amount 250 mg): 0%
mortality at 500 mg ([5]; 24 h, read-out: Death ratio (%) 24 hrs., Dusting amount 500 mg): 0%

CCNC(=O)Oc1cc(C)cc(C)c1 [Compound 41, 3.5-dimethylphenyl-N-ethylcarbamate]
Inhibition of Cholinesterase R/S (resistant ratio) [6]: 0.7
IC50 [6]: 7.9e-05 M
IC50 [7]: 0.00011 M
mortality at 100 mg/cylinder [2, 8]: 50%
mortality at 250 mg/cylinder [2, 9]: 70%
Insecticidal Activity R/S (resistant ratio) [3, 10]: 2.0

CCNC(=O)Oc1ccccc1C(C)C [Compound 2, 2-isopropylpheny-N-ethylcarbamate]
Inhibition of Cholinesterase R/S (resistant ratio) [6]: 1.6
IC50 [6]: 5.2e-05 M
IC50 [7]: 3.2e-05 M
Insecticidal Activity R/S (resistant ratio) [3, 10]: 2.1

CCc1cccc(OC(=O)NC)c1 [Compound 29, reference compound]
Inhibition of Cholinesterase R/S (resistant ratio) [6]: 41.4
IC50 [6]: 0.00012 M
IC50 [7]: 2.9e-06 M
Insecticidal Activity R/S (resistant ratio) [3, 10]: 14.9

CCNC(=O)Oc1cccc(CC)c1 [Compound 30]
Inhibition of Cholinesterase R/S (resistant ratio) [6]: 0.8
IC50 [6]: 0.00016 M
IC50 [7]: 0.0002 M
Insecticidal Activity R/S (resistant ratio) [3, 10]: 1.7

CCCNC(=O)Oc1cc(C)c(N(C)C)c(C)c1 [Compound 120, 3,5-dimethyl-4-dimethylaminophenyl-N-n-propylcarbamate]
LD50 at 168 h [4]: 30 to 300 mg/kg
mortality ([4]; 30 mg/kg): 0%
mortality ([4]; 300 mg/kg): 100%

CCC(C)c1ccccc1OC(=O)NC (stereo not shown) [Compound 6, 2-sec-butylphenyl-N-methylcarbamate]
mortality at 250 mg/cylinder [2, 9]: 10%
Effect of individual compound (RN), death ratio (%) (Table 9) [2]: 0%
Insecticidal Activity R/S (resistant ratio) [3, 10]: 28.4
mortality at 100 mg ([5]; Table 10, 35 mesh, 100 mg, 1 hr, read-out: Death ratio (%) 1 hr., Dusting amount 100 mg): 0%
mortality at 100 mg ([5]; Table 10, 35 mesh, 100 mg, 2 hrs, read-out: Death ratio (%) 2 hrs., Dusting amount 100 mg): 0%
mortality at 100 mg ([5]; Table 10, 35 mesh, 100 mg, 4 hrs, read-out: Death ratio (%) 4 hrs., Dusting amount 100 mg): 0%
mortality at 100 mg ([5]; Table 10, 35 mesh, 100 mg, 16 hrs, read-out: Death ratio (%) 16 hrs., Dusting amount 100 mg): 0%
mortality at 100 mg ([5]; Table 10, 35 mesh, 100 mg, 24 hrs, read-out: Death ratio (%) 24 hrs., Dusting amount 100 mg): 0%
mortality at 250 mg ([5]; Table 10, 35 mesh, 250 mg, 1 hr, read-out: Death ratio (%) 1 hr., Dusting amount 250 mg): 0%
mortality at 250 mg ([5]; Table 10, 35 mesh, 250 mg, 2 hrs, read-out: Death ratio (%) 2 hrs., Dusting amount 250 mg): 0%
mortality at 250 mg ([5]; Table 10, 35 mesh, 250 mg, 4 hrs, read-out: Death ratio (%) 4 hrs., Dusting amount 250 mg): 0%
mortality at 250 mg ([5]; Table 10, 35 mesh, 250 mg, 16 hrs, read-out: Death ratio (%) 16 hrs., Dusting amount 250 mg): 0%
mortality at 250 mg ([5]; Table 10, 35 mesh, 250 mg, 24 hrs, read-out: Death ratio (%) 24 hrs., Dusting amount 250 mg): 0%
mortality at 500 mg ([5]; Table 10, 35 mesh, 500 mg, 1 hr, read-out: Death ratio (%) 1 hr., Dusting amount 500 mg): 0%
mortality at 500 mg ([5]; Table 10, 35 mesh, 500 mg, 2 hrs, read-out: Death ratio (%) 2 hrs., Dusting amount 500 mg): 0%
mortality at 500 mg ([5]; Table 10, 35 mesh, 500 mg, 4 hrs, read-out: Death ratio (%) 4 hrs., Dusting amount 500 mg): 0%
mortality at 500 mg ([5]; Table 10, 35 mesh, 500 mg, 16 hrs, read-out: Death ratio (%) 16 hrs., Dusting amount 500 mg): 0%
mortality at 500 mg ([5]; Table 10, 35 mesh, 500 mg, 24 hrs, read-out: Death ratio (%) 24 hrs., Dusting amount 500 mg): 0%
